This is an account of results in paper PMC11359197 (Viruses, 2024).

Where a SMILES comes first, the peptide text is derived from it.

This experiment has as its system SARS-CoV-2 M^pro precursors Nsp4-4F-M^pro-GST and 4F-M^pro-GST. It is filed as cell-based.
Take `Cc1cccc(C)c1OCC(=O)N[C@@H](Cc1ccccc1)[C@@H](O)C[C@H](Cc1ccccc1)NC(=O)[C@H](C(C)C)N1CCCNC1=O` [lopinavir]: the “AlphaLISA signal (precursor-mediated N-terminal processing)” value (“AlphaLISA signal” for short) is “background levels”.
In the case of `CC(C)C[C@H](NC(=O)[C@H]1O[C@@H]1C(=O)O)C(=O)NCCCCN=C(N)N` [E-64], the “AlphaLISA signal” value is given as “background levels”.
With `CC(NC(=O)[C@H](Cc1ccccc1)NC(=O)OCc1ccccc1)C(=O)CF` (stereo partly drawn) [Z-FA-FMK] the entry was “no detectable impact”.
With `COC(=O)N[C@H](C(=O)N[C@@H](Cc1ccccc1)[C@@H](O)CN(Cc1ccc(-c2ccccn2)cc1)NC(=O)[C@@H](NC(=O)OC)C(C)(C)C)C(C)(C)C` [atazanavir] the entry was “background levels”.
Regarding `CSCC[C@@H](C=O)NC(=O)[C@H](CC(C)C)NC(=O)[C@H](CC(C)C)NC(C)=O` [calpain inhibitor II] (Ac-Leu-Leu-Met-aldehyde), the “AlphaLISA signal” value is on record as “no detectable impact”.
For `CC(C)(C)NC(=O)N[C@H](C(=O)N1C[C@H]2[C@@H]([C@H]1C(=O)NC(CC1CCC1)C(=O)C(N)=O)C2(C)C)C(C)(C)C` (stereo partly drawn) [boceprevir, Boceprevir] the value was “no detectable impact”.
